{"source": "patent US20260243775A1", "about": "“CELL LABELING AND ANNOTATION IN MICRO-ORGANOSPHERES” (Xilis, Inc., priority 2023, published 2026)", "system": "CRC cells co-encapsulated with fibroblasts, endothelial cells, and PBMCs in MOS", "test": "Live/dead staining (Calcein AM / ethidium homodimer) of EpCAM-stained MOS after drug treatment", "type": "cell-based", "conditions": "higher dose (33.3 μM) versus 1.23 μM, treated for three days, FIG. 3A", "source_text": "FIG. 3A includes representative images showing live MOS staining of CRC cells co-encapsulated with fibroblasts, endothelial cells, and PBMCs, stained with EpCAM and treated with vehicle or oxaliplatin for three days, followed by staining with Calcein AM (CAM) and ethidium homodimer (EtH). FIG. 3B is a graph plotting differential drug responses observed for the CRC only condition and for CRCs co-encapsulated with the non-cancer cells, measured by CTG assay.\nAdditional images of stained live MOS are shown in FIG. 3A, which includes representative images of live MOS containing CRC cells co-encapsulated with fibroblasts, endothelial cells, and PBMCs, where the MOS were stained with EpCAM and treated with vehicle or oxaliplatin (1.23 μM or 33.3 μM) for three days, followed by staining with Calcein AM (CAM) and ethidium homodimer (EtH). […] When MOS encapsulating only CRC cells or MOS co-encapsulating CRC cells, fibroblasts, endothelial cells, and PBMCs were treated with oxaliplatin, differential responses to the treatment were observed between the CRC-only MOS and the co-encapsulated MOS, as determined by CTG assay (FIG. 3B). However, the drug responses of the CRC-only MOS versus the CRC/non-cancer cell co-encapsulated MOS were much more similar based on live cell dye (CAM): dead cell dye (EtH) ratios from EpCAM positive (FIG. 3C)."}
{"smiles": "O=C1[O][Pt]2([NH][C@@H]3CCCC[C@H]3[NH]2)[O]C1=O", "note": "[oxaliplatin]", "values": [{"measurement": "EtH (dead) and Calcein AM (live) staining, degree of killing", "result": "a greater degree of killing"}]}
